Consider four compounds from publication PMC8151276, “An Integrated Approach toward NanoBRET Tracers for Analysis of GPCR Ligand Engagement” (Molecules, 2021).

One assay deals with T1, NPY5R (Homo sapiens, UniProt Q15761).
T1 construct: purchased Promega (in-house HiBiT-GPCR construct library, NanoBRET)
T1 sequence (Q15761 1-445): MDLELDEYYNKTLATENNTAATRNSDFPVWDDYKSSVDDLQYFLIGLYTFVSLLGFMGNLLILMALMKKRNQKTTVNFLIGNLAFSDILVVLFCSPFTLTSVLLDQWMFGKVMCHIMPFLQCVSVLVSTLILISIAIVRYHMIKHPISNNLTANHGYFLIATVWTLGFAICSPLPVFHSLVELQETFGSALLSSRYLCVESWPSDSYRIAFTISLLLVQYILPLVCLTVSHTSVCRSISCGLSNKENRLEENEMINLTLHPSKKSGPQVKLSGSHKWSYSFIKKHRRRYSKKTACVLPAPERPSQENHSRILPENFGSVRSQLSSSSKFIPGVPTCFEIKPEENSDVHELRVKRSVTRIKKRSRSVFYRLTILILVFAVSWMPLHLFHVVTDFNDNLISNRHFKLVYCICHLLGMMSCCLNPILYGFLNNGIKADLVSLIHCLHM
Put plainly: NanoBRET screen HiBiT-NPY5R in HEK293. The format is binding. How it is done: (§1) Each tracer candidate was screened across the entire library of HiBiT-GPCR constructs using NanoBRET as the detection modality. As depicted in Figure 4A, the specificity of interactions was evaluated through decrease in BRET due to competitive displacement of a bound tracer by excess parental compound. Each tracer was analyzed for binding to each HiBiT-GPCR fusion in the absence and in the presence of competing parental compound. Briefly, HEK293 cells were transfected with HiBiT-GPCR constructs diluted into promoterless DNA to reduce expression and maximize translocation to the cell surface. Each tracer candidate was then screened at concentrations of 1 μM and 0.1 μM across cells expressing these fusions. Cells were treated for 1.5 h with tracer either alone or in the presence of 20 μM competing parental compound (i.e., control). BRET was measured upon addition of purified LgBiT and subsequent complementation with HiBiT genetically fused to a GPCR. The specificity of interactions was assessed through a decrease in BRET signal due to competitive displacement of the bound tracer. To further gauge the robustness of these interactions, the fold response over the control (i.e., BRETtracer/BRETcontrol) was calculated. We chose a 1.5-fold response, which translates to ≥7-fold signal over noise as the minimal threshold required to score an interaction as positive.
(§2) HiBiT-GPCR DNA constructs were diluted in 10 mM Tris pH 8 to a final concentration of 0.01 μg/μL, arrayed in 96-well plates and stored at −20 °C. For transfection, HEK293 cells were suspended in Opti-MEM (without phenol red) supplemented with 2% fetal bovine serum (Seradigm) and 100 units/mL penicillin–streptomycin (Gibco) at a final concentration of 220,000 cells/mL and dispensed into white 96-well plates at 90 μL/well. Subsequent transfections and screens were carried using an Agilent Bravo Automated Liquid Handling Platform. First, the 96-well HiBiT DNA arrays were diluted 25-fold in Opti-MEM (without serum or phenol red) to a final concentration of 0.0004 μg/μL and 20 μL of the diluted DNAs were transferred into new 96-well plates. Next, promoterless carrier DNA (1 μg/μL) was diluted 25-fold (0.04 μg/μL) and then dispensed into the diluted arrays at 20 μL/well. Following brief mixing, Viafect transfection reagent (Promega) diluted 16-fold into Opti-MEM was dispensed into the plates at 40 μL/well. After mixing by pipetting, plates were incubated for 10 min on the pipetting station deck. The DNA-transfection reagent complexes were then added to plates containing cells. To facilitate the screen, 10 μL of DNA-transfection reagent complexes were added in duplicates to the top 4 and bottom 4 rows, resulting in two identical 48-well arrays per plate. Plates with transfected cells were incubated for 18–20 h at 37 °C/5% CO2. A screen of each tracer across the entire library using two different concentrations requires duplicate plates of transfected cells. Depending on the number of tracers being screened, transfections can be scaled up using the same ratios. The next day, for each tracer, four 20× screening solutions in tracer dilution buffer (Promega) were prepared: two duplicates at final concentration of 20 μM and two duplicates at a final concentration of 2 μM. […] The four resulting solutions were diluted 4-fold in Opti-MEM without serum or phenol red to generate 5× solutions (5 µM and 0.5 µM tracer +/− 100 μM competing compound). To screen the library, a BioTek MultiFlo FX liquid dispenser was used to dispense 22.5 µL of tracer solution to the top 4 rows and 22.5 µL tracer + competing compound solution to the 4 bottom rows. Plates were briefly mixed on an orbital shaker and incubated for 1.5 h at room temperature. […] Plates were briefly mixed on an orbital shaker and incubated for 15 min to allow complementation.
(In general: BRET reads energy transfer from a luciferase to a nearby fluorophore.)

For the next assay, the target named is T2, CYSLTR1 (Homo sapiens, UniProt Q9Y271).
T2 construct: purchased Promega (in-house HiBiT-GPCR construct library, NanoBRET)
T2 sequence (Q9Y271 1-337): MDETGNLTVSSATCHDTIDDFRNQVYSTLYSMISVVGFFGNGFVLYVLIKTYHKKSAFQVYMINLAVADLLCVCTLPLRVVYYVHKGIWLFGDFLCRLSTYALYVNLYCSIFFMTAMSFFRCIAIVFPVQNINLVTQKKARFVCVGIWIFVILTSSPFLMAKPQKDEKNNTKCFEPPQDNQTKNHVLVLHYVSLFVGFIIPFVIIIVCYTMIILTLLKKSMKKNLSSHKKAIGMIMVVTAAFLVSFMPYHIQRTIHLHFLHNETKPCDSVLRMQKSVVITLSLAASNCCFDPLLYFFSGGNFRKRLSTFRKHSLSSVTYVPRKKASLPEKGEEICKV
Nature of the assay: NanoBRET screen HiBiT-CYSLTR1 in HEK293. The format is binding. Conditions: CYSLTR1. As to the method:
as §1, §2

Turning to `CN(C)CCC=C1c2ccccc2CCc2ccc(C(=O)NCCNC(=O)CCOCCOCCOCCOCCNC(=O)CCc3ccc4n3[B-](F)(F)[N+]3=C(c5ccc[nH]5)C=CC3=C4)cc21` [Amitriptyline-b-2-NB590], the “NanoBRET Fold Response” value is on record as 0.89 on NPY5R (tracer at 0.1μM, listed as amitriptyline-b-2-NB590); 1.02 at NPY5R (tracer at 1μM, listed as amitriptyline-b-2-NB590); 0.94 on CYSLTR1 (tracer 0.1μM); 1.01 on CYSLTR1 (tracer 1μM).
Regarding `O=C(CCOCCOCCOCCOCCNC(=O)CCc1ccc2n1[B-](F)(F)[N+]1=C(c3ccc[nH]3)C=CC1=C2)NCCCN1CCN(C2=Nc3ccccc3Oc3ccc(Cl)cc32)CC1` [Loxapine-a-2-NB590], the “NanoBRET Fold Response” value is 0.96 on NPY5R (NPY5R, tracer 0.1μM); 1.09 on NPY5R (NPY5R, tracer 1μM); 1.12 on CYSLTR1 (tracer 0.1μM); 1.02 on CYSLTR1 (tracer 1μM).
In the case of `CCCn1c(=O)c2[nH]c(-c3ccc(OCC(=O)NCCNC(=O)CCOCCNC(=O)c4ccc(CNC(=O)CCc5ccc6n5[B-](F)(F)[N+]5=C(c7ccc[nH]7)C=CC5=C6)cc4)cc3)nc2n(CCC)c1=O` [XAC-3-NB590], the “NanoBRET Fold Response” value on NPY5R (NPY5R, tracer 0.1μM) is reported as 1.02; on NPY5R (NPY5R, tracer 1μM) it was 1.10; on CYSLTR1 (tracer 1μM), 1.08.
In the case of `CCOC(=O)c1cc(C#N)c(N2CCC(C(=O)NS(=O)(=O)Cc3ccccc3/C=C/C(=O)NCCNC(=O)CCc3ccc4n3[B-](F)(F)[N+]3=C(c5ccc[nH]5)C=CC3=C4)CC2)nc1C` [AZD1283-1-NB590], the “NanoBRET Fold Response” value on NPY5R (NPY5R, 0.1μM) was found to be 1.01; on NPY5R (NPY5R, 1μM) it was 1.03; on CYSLTR1 (0.1μM), 1.01; on CYSLTR1 (1μM), 0.98.
